Legend:
[1] = tested on: 5/6 nephrectomized (5/6 NX) rats; assay: Anemia associated with chronic kidney disease, 5/6 nephrectomized rat model; format: in vivo; conditions: for fold increase in reticulocyte production index: compared to control group
Description: The efficacy of the test compound to correct anemia associated with CKD was studied in an animal model of anemia - 5/6 nephrectomized (5/6 NX) rats^15,16,17. Animals were randomized based upon anemia and kidney dysfunction parameters and divided into two groups. One group received compound-10 (20mg/kg; b.i.d. i.p) for seven days while the control received respective vehicle. Blood sampling was done on day 3 and 7 post initiation of drug administration to check early markers of anemia correction.

[2] = tested on: renal ischemia and reperfusion induced acute kidney injury model in rats; assay: Renal ischemia and reperfusion induced acute kidney injury model; format: in vivo; conditions: 24hrs post initiation of ischemia, from control group
Description: The efficacy of test compound to improve renal function was evaluated in a renal ischemia and reperfusion induced acute kidney injury model in rats. The beneficial effect of the compound was evaluated using two different treatment protocols. In one protocol treatment with test compound was given before onset of ischemia (pre-treatment) and the other protocol involed treatment with test compound initiated after the onset of ischemia (post-treatment).
Pre-ischemia intervention protocol: Rats were randomised into two groups, compound treated and vehicle control. Before initiation of bilateral renal ischemia, the animals in compound treatment group received multiple doses of compound no. 10 (i.e. pre treated) and control group received vehicle by i.p route.
Post-ischemia intervention protocol: Rats were randomised into two groups, compound treated and vehicle control. After intiation of bilateral renal ischemia, the animals in compound treatment group received multiple doses of compound no. 10 (i.e. post treated) and control group received vehicle in similar fashion by i.p route.
Induction of Renal ischemia and reperfusion in rats: All animals were anesthetized with pentobarbital sodium (50 mg/kg body wt). Homeothermic blanket was used to maintain a constant body temperature of 37°C during surgery and ischemia. A midline incision was made at the ventral side to access the kidneys and both renal pedicle were isolated and occluded for 35 mins using microclips, which was verified by the change of the renal color. After an ischemic period of 35 min, the microclips were removed and reperfusion initiated. The abdomen was closed and skin & muscles sutured and animal allowed to recover. Blood sample of 300 µl was taken via sublingual vein puncture at various predetermined time points.
In both protocols tested i.e pre-ischemia intervention and post-ischemia intervention, renal function improvement was assessed by measuring serum creatinine and BUN (blood urea nitrogen) at various time points post ischemia. Results are expressed below as % reduction from their control group at 24hrs post initiation of ischemia.

[3] = tested on: erythropoietin; assay: In vitro erythropoietin induction (ELISA of cell culture supernatant); conditions: Homo sapiens, Hep3B, 16 h, read-out: EPO fold induction, Hep3B cell line, 200 uM, 16 hours, relative to vehicle control
Description: Hep3B cell line (ATCC HB8064) was employed. Induction of erythropoietin was carried out for the indicated dose of compounds for 16 hours duration. At the end of 16 hours, cell culture medium was collected and centrifuged to remove any debris. Supernatant obtained was analyzed for erythropoietin by ELISA (R&D systems, USA). The results were expressed as fold induction as compared to vehicle control.

[4] = tested on: adrenomedullin mRNA; assay: In vitro induction of adrenomedullin mRNA (real-time PCR, normalized to 18S rRNA); format: cell-based; conditions: Homo sapiens, Hep3B, 6 h, Hep3B cell line, relative to vehicle control
Description: Hep3B cell line (ATCC HB8064) was employed. […] At the end of 6 hours, cells were lysed and total RNA was isolated. Expression of adrenomedullin mRNA along-with expression of 18S rRNA was monitored by real-time PCR. Adrenomedullin mRNA expression was normalized relative to the expression of 18S rRNA. The results were expressed as fold induction of adrenomedullin mRNA relative to vehicle treated control.

[5] = tested on: VEGF; assay: In vitro induction of VEGF (ELISA of cell culture supernatant); format: cell-based; conditions: Homo sapiens, Hep3B cell line, 16 hours, relative to vehicle control
Description: Hep3B cell line (ATCC HB8064) was employed. […] Supernatant obtained was analyzed for VEGF by ELISA (R&D systems, USA). […]

[6] = day 7 of treatment, 5/6 NX rats, 20mg/kg b.i.d. i.p, compared to control
[7] = Post-ischemia intervention, i.p. 0.3mg/kg as 1st dose & 0.1mg/kg as subsequent dose
[8] = Pre-ischemia intervention, i.p. 10 mg/kg multiple dose

With O=C(O)CNC(=O)c1c(O)nc2sc3c(n2c1=O)CCCCC3 [Compound 10, [(2-Hydroxy-4-oxo-6,7,8,9-tetrahydro-4H,5H-10-thia-1,4a-diaza-benzo[a]azulene-3-carbonyl)-amino] -acetic acid] the “circulating EPO levels” value ([1]; 5/6 NX rats, 20mg/kg b.i.d. i.p for seven days, vehicle control undetectable (<45 pg/ml)) was 115 to 3900 pg/mL, the “fold increase in reticulocyte production index” value ([1]; day 3, 5/6 NX rats, 20mg/kg b.i.d. i.p) was 3 fold and the “fold increase in reticulocyte production index” value ([1]; day 7, 5/6 NX rats, 20mg/kg b.i.d. i.p) was 5.6 fold. The “increase in erythrocyte count” value [1, 6] was 24%, the “increase in hematocrit percent” value [1, 6] was 25% and the “increase in hemoglobin content” value [1, 6] was 30%. The “% reduction BUN” value [2, 7] was 17.0%, the “% reduction Ser.Creatinine” value [2, 7] was 31.0% and the “% reduction BUN” value [2, 8] was 18.0%. The “% reduction Ser.Creatinine” value [2, 8] was 33.0%, the fold induction at 200 µM [3] was greater than 16 and the fold induction at 200 µM [4] was greater than 8. The fold induction at 200 µM [5] was 2 to 4.

From patent EP2385948B1, “FUSED THIAZOLO AND OXAZOLO PYRIMIDINONES” (Torrent Pharmaceuticals Limited, priority 2009, dated 2011)
